Where a name gives a salt, the structure may show the parent alone.
Legend:
[1] = Hygroscopicity of the crystalline form; type: physicochemical; conditions: crystalline solid form
[2] = Polymorphic stability at relative humidity, room temperature; type: physicochemical; conditions: for at least 7 days

Row | SMILES | hygroscopicity [1] | relative humidity up to which the form is polymorphically stable [2]
1 | CC(C)c1cc(Oc2c(Cl)cc(-n3nc(C#N)c(=O)[nH]c3=O)cc2Cl)n[nH]c1=O [Form RC2-B, Resmetirom:caffeine] | non-hygroscopic | up to 80 % relative humidity
2 | CC(C)c1cc(Oc2c(Cl)cc(-n3nc(C#N)c(=O)[nH]c3=O)cc2Cl)n[nH]c1=O [Form R2-A, Resmetirom piperazine salt] | non-hygroscopic | up to 100 % relative humidity
3 | CC(C)c1cc(Oc2c(Cl)cc(-n3nc(C#N)c(=O)[nH]c3=O)cc2Cl)n[nH]c1=O [Form R3-A, Resmetirom:L-proline] | non-hygroscopic | up to 80 % relative humidity

Results, then the molecule that gave them:

Row | hygroscopicity [1] | relative humidity up to which the form is polymorphically stable [2] | SMILES
4 | non-hygroscopic | up to 100 % relative humidity | CC(C)c1cc(Oc2c(Cl)cc(-n3nc(C#N)c(=O)[nH]c3=O)cc2Cl)n[nH]c1=O [Form RC2-A, Resmetirom:caffeine]
5 | non-hygroscopic | up to 80 % relative humidity | CC(C)c1cc(Oc2c(Cl)cc(-n3nc(C#N)c(=O)[nH]c3=O)cc2Cl)n[nH]c1=O [Form 20, 2-[3,5-dichloro-4-[(6-oxo-5-propan-2-yl-1H-pyridazin-3-yl)oxy]phenyl]-3,5-dioxo-1,2,4-triazine-6-carbonitrile]
6 | non-hygroscopic | up to 80 % relative humidity | CC(C)c1cc(Oc2c(Cl)cc(-n3nc(C#N)c(=O)[nH]c3=O)cc2Cl)n[nH]c1=O [Form RC1-A, Resmetirom:nicotinamide]
